Tests used:
[1] = test system: BMP-2, BMP-4, noggin, Shh, VEGF, FGF-1, FGF-2; assay: Surface plasmon resonance (SPR) binding to immobilized heparin binding GFs; parameters: species or system human (Noggin murine); details: analytes 50-500 nM; GFs immobilized on alginate surface; 25° C.
Procedure: Surface Plasmon Resonance: The binding interactions between PAs (analytes) and growth factors (ligands) were analyzed via surface plasmon resonance (SPR) using a ProteON XPR36 system (Bio-Rad Laboratories). PA samples were thermally annealed as described for Cryo-TEM. PA solutions were spun down, pipetted for homogeneous mixing, and sequentially diluted to appropriate concentrations using Tween buffer (Milli-Q water, 0.05% Tween-20). Lyophilized powders of GFs were reconstituted to 5 μM without any carrier proteins according to the manufacturer's instructions. BMP-2, BMP-4, Shh, VEGF, and FGF-2 were further diluted to 200 nM in ProteOn Acetate Buffer pH 5.5, while FGF-1 was diluted to 200 nM in ProteOn Acetate Buffer pH 4.5. Noggin was diluted to 300 nM in ProteOn Acetate Buffer pH 5.5.
GFs were immobilized on a ProteOn GLC-Chip via amino coupling as described previously, with slight modifications (37). First, the alginate surface was activated with a freshly prepared mixture of 20 mM 1-Ethyl-3-[3-dimethylaminopropyl]carbodiimide hydrochloride (EDC) and 5 mM N-hydroxysulfosuccinimide (Sulfo-NHS) in Milli-Q water (vertical flow cells, 30 μL/min, 3 min). Following, GFs were immobilized on vertical flow cells 1 to 5 by perfusing a freshly prepared 200 nM (or 300 nM) solution over the activated alginate surface (30 μL/min, 5 min). Blank buffer was perfused on vertical cell 6 as a reference. The remaining esters were deactivated with 1 M ethanolamine (30 μL/min, 3 min). The association and dissociation phases were performed at 25° C. in Tween buffer. Prior to each analyte injection, the horizontal flow cells 1 to 6 were regenerated with 10 mM NaOH (100 μL/min, 30 sec) and washed once with Tween buffer (30 μL/min, 3 min). Varied analyte concentrations were injected to horizontal flow cells 1 to 5, with flow cell 6 as a reference (30 μL/min, 5 min), followed by dissociation with Tween buffer (30 μL/min, 10 min). For analysis, SPR sensorgram from the reference flow cell was subtracted from all measurement flow cells. Interaction data were evaluated using the BIAEvaluation 4.1 software. […]

[2] = test system: ALP and Osteocalcin (OCN) gene expression in C2C12 cells; assay: Quantitative RT-PCR of ALP and Osteocalcin in C2C12 cells; format: cell-based, mouse; details: relative to heparin or PA nanofibers displaying uncharged GlcNAc; day 3
Procedure: C2C12 Cell Culture: C2C12 mouse myoblasts (ATCC) were maintained in Dulbecco's Modified Eagle's Medium with high glucose and L-glutamine (DMEM, ATCC), supplemented with 100 U/mL of penicillin and 100 μg/mL streptomycin (P/S, Life Technologies) and 10% heat inactivated FBS (Life Technologies), and passaged at 80-90% confluence. Media was changed every 2 days. Passages 3 to 8 were used for experiments. Cells were grown at 37° C., 5% CO2 in a humidified atmosphere. Cells were detached following a 3 minute incubation at 37° C. with 0.05% Trypsin-EDTA (Life Technologies), then resuspended in DMEM (10% FBS). Unless stated otherwise, cells were seeded at 75,000 cells/mL (400 μL/well in a 48-well plate), and allowed to attach for a minimum of 3 hours prior to experiments.
C2C12 Osteoblast Differentiation: PA samples were thermally annealed as described for Cryo-TEM. […] Cells were cultured for 3 days without changing the media, and osteoblast differentiation was assessed.
Quantitative RT-PCR: The gene expression levels were determined by real-time, reverse-transcription-PCR using an iQ5 Real-Time PCR Detection System (Bio-Rad). […] To confirm the specificity of the amplified products, melting curves were performed by cooling samples at 55° C. for 30 s and then increasing the temperature to 94° C. at 0.5° C./sec with continuous fluorescence measurement. […]

3,4,6S-GlcNAc PA (VVAAEEK) [PA 1, glycosylated peptide amphiphile: Alkyne PA click-conjugated with trisulfated monosaccharide 1]
binding to heparin binding GFs (SPR) [1]: strong concentration-dependent binding
ALP mRNA expression [2]: higher expressions
osteocalcin mRNA expression [2]: higher expressions

Reference: patent US11497788B2, “Supramolecular glycosaminoglycans” (Northwestern University, priority 2015, dated 2022)
